Measured values taken from paper PMC8137473, “Preclinical trial of a MAP4K4 inhibitor to reduce infarct size in the pig: does cardioprotection in human stem cell-derived myocytes predict success in large mammals?” (Basic Research in Cardiology, 2021).

Key:
[1] = test system: porcine model of MI; assay: efficacy study, LAD occlusion 60 min / reperfusion 24 h: infarct size, no-reflow, area at risk; type: in vivo, swine
Procedure: Next, an efficacy study was performed, in adherence to published guidelines for rigor and reproducibility, to evaluate the postulated benefit of DMX-10001 in a large-mammal model of MI. Briefly, 36 closed-chest swine (41 ± 2 kg) were subjected to regional ischemia by occluding the left anterior descending coronary artery (LAD) distal to the first diagonal branch for 60 min, followed by 24 h of reperfusion. Treatment with DMX-10001 (60 mg/kg/h for 0.5 h, followed by 17 mg/kg/h for 23.5 h) versus the vehicle was initiated 20 min prior to reperfusion and continued for 1 day. After 2 h of reperfusion, animals were allowed to recover from anesthesia. At 24 h of reperfusion, the infarct area (IA), area of no-reflow (NR), and area at ischemic risk (AAR) were determined. Transthoracic short-axis B-mode echocardiograms and measurements of LV pressure and its first derivative (LVdP/dt) were obtained at baseline and at 24 h of reperfusion. LV pressure–volume measurements were obtained at 24 h of reperfusion. Heart-type fatty acid binding protein (hFABP) release was measured, as a biomarker that correlates with IS and NR in swine at least as well as cardiac troponin I [30].
The LAD was catheterized with a standard clinical guiding catheter (JL3.5, 6F, Medtronic, Minneapolis, MN), and quantitative coronary angiography (CAAS, PIE Medical, Maastricht, The Netherlands) was performed following 2 mg isosorbidedinitrate (Cedocard, Nycomed, Hoofddorp, The Netherlands) and using iodixanol as contrast agent (Visipaque™, GE Healthcare BV, Eindhoven, The Netherlands). Then, an over-the-wire coronary angioplasty balloon (Sprinter OTW, 2–3 mm × 6 mm, Medtronic, Minneapolis, MN) on a standard guide wire (0.014″, 180 cm, ASAHI SION blue, ASAHI Intecc co Ltd, Aichi, Japan) was carefully positioned under fluoroscopic guidance distal to the first diagonal branch. Following balloon inflation, total coronary occlusion was confirmed by angiography (at baseline and at 58 min of occlusion) and by ECG changes. Animals that developed VF during the protocol were defibrillated within 25 ± 10 s. After 1 h of occlusion, the coronary balloon was deflated to establish reperfusion, which was angiographically confirmed to ensure an adequate coronary blood flow to the entire LAD perfusion territory. Heart rate, aortic blood pressure, and ECG were monitored until 2 h of reperfusion.
Twenty min before the onset of reperfusion, an initial rapid administration was started (30 min infusion, 60 mg/kg/h, Alaris CC, Cardinal Health, Role, Switzerland), followed after 10 min of reperfusion by a lower sustained dose (23.5 h infusion, 17 mg/kg/h, Myfuser, CANOX medical Device Srl, Capurso, Italy). The dosing regimen was determined by iterative computer modeling (XenoGesis Ltd, Alderley Park, UK) (Fig. 1b), based on prior dose-finding studies in pigs (data not shown).
After completing the post-infarct LV functional measurements on day two, the LAD was again catheterized, as before. The over-the-wire coronary angioplasty balloon and guide wire were positioned under fluoroscopic guidance at the same position, using anatomic landmarks (distance from sidebranches) visualized by coronary angiography. Through the lumen of the balloon, 5 ml of 4% (w/v) thioflavin-S solution (Sigma, Zwijndrecht, The Netherlands) were injected, allowing the area of no-reflow within the AAR to be measured later histologically. The balloon was re-inflated to re-occlude the LAD and a sternotomy was performed. Next, a bolus of 40 ml of a 15% (w/v) Evans Blue solution was injected into the left atrium for negative staining of the AAR. To facilitate excision, the heart was arrested via induction of VF by gently touching the LV epicardium with a 9 V battery. The LV was isolated and sectioned into 5 transverse slices. The AAR and area of no-reflow (NR), visualized using UV light, were quantified in all sections. […]

[2] = aqueous solubility; type: physicochemical
Procedure: The chemical structures of DMX-5804 and DMX-10001 are compared in Fig. 1a, highlighting the phosphate moiety of the pro-drug. The aqueous solubility of DMX-10001 was > 400-fold greater than that of DMX-5804, allowing it to be infused i.v. without prohibitive fluid volumes. Cleavage to DMX-5804 was detectable in rats within 5 min and largely complete within 60 min (Fig. 1b). Data from i.v. infusion at a range of dose levels in the pig were simultaneously fit to a three-compartment pharmacokinetic model. Plasma protein binding in pig was used to determine free drug levels (not shown). Various dosing regimens were simulated to avoid an initial spike in DMX-5804 whilst rapidly achieving the efficacious drug levels seen in mice after oral gavage (Fig. 1c).

[3] = target: MAP4K4 (Homo sapiens, UniProt O95819); assay: cell-free biochemical assay, MAP4K4 inhibition
Description: DMX-10001, a rapidly hydrolyzed phosphate pro-drug of DMX-5804, was produced by Domainex Ltd, by a modification of the latter’s synthetic route, attaching a hydrolysable phosphate group via a linker to the core of DMX-5804 (Fig. 1a). This removes a key hydrogen bonding group and prevents DMX-10001 from binding to the hinge region of the MAP4K4 kinase domain. […] Furthermore, this modest value is likely driven by minute levels of DMX-5804 either present in the sample or generated during by hydrolysis during the assay.

MAP4K4, sequence (O95819 whole entry, species assumed, the tested form may be a part): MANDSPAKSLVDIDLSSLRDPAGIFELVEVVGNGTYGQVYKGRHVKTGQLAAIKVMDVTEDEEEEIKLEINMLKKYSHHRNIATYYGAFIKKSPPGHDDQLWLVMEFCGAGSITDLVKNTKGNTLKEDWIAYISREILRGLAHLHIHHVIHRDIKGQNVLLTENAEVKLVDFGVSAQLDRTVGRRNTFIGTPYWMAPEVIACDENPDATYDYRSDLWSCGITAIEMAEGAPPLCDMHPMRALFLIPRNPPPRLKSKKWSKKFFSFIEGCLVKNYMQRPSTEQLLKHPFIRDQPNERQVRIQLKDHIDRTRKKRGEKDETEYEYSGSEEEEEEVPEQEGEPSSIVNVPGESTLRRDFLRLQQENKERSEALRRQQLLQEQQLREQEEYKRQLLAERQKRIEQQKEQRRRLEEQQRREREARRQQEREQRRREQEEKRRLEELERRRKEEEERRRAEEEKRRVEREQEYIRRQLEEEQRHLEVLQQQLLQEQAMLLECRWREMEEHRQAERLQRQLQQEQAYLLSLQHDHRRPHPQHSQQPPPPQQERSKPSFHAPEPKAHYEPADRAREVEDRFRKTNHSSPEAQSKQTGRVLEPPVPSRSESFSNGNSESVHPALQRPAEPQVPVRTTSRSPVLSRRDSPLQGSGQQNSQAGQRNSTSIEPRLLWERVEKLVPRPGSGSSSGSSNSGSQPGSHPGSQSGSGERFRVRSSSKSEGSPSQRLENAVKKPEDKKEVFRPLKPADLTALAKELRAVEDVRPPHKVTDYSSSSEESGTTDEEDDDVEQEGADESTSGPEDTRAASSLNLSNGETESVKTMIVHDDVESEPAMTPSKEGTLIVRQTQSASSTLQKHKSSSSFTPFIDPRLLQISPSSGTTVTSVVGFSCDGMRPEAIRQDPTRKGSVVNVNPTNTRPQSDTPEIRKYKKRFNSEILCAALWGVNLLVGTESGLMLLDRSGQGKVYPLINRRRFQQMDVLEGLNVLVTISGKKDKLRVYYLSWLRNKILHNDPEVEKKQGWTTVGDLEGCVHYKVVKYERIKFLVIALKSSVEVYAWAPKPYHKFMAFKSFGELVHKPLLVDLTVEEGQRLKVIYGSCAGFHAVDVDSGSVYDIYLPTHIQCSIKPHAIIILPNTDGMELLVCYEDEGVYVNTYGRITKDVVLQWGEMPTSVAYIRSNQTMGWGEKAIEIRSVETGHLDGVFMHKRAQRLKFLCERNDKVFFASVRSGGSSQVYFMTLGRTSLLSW

In the case of COCCOc1ccc(-c2cn(-c3ccccc3)c3ncn(COP(=O)(O)O)c(=O)c23)cc1 [DMX-10001], the IS/AAR ([1]; excluding one statistical outlier, n = 11) is reported as 82.1 ± 8.6%, the “difference in IS/AAR vs the vehicle control” value ([1]; excluding one statistical outlier, P = 0.0562) is reported as 7% and the “effect on NR, NR/AAR or NR/IS” value ([1]; full cohort) is reported as “no significant effect”. The IS/AAR ([1]; full cohort, n = 12) was 76.3 ± 21.6%, the “extent of infarction (IS)” value ([1]; full cohort, n = 12) was 18.2 ± 5.8 g and the “extent of infarction (IS) as % of LV mass” value ([1]; full cohort, n = 12) was 17.2 ± 5.7%. For the same compound, the “reduction of the extent of infarction in grams or % of LV mass vs vehicle” value ([1]; full cohort, n = 12 per group) was 27%, the “reduction in mean IS/AAR vs vehicle” value ([1]; full cohort, not significant (P = 0.0817)) was 13% and the “IS or no-reflow corrected for the area at ischemic risk” value ([1]; in vivo) was “No significant reduction”. The “ANCOVA: slopes of IS and NR as a function of AAR, NR as a function of IS” value ([1]; n = 11) was “No significant differences”, the “aqueous solubility relative to that of DMX-5804” value [2] was > 400 fold and the “difference in IC50 against MAP4K4, DMX-10001 vs DMX-5804” value [3] was > 750 fold. The IC50 ([3]; cell-free biochemical assays, read-out: IC50 against MAP4K4) was 2300 nM.
